# Columns and labels:
# Type in all cases: cell-based
# [1] = tested on: pig skin samples; assay: Skin pigmentation (melanin, Fontana-Masson staining) in pig skin organ culture; settings: Pietrain dorsal pig skin, 1% w/v topical, re-applied daily
# Description: For this experiment, full thickness pig skin has been excised from dorsal part of a pig with 30±5 follicles/cm^2 (age: 8 weeks; weight: 24 kg). The skin samples have been cut under sterile condition in smaller pieces (surface: 4×4; thickness: 3 mm) and placed in a 6 wells plate (two samples per well) over a sterilized cotton immerse in 5 ml of culture medium, incubated at 37° C., 5% CO2, 100% humidity, as described above. Culture medium has been renewed every other day.
# Thus, 10 μl of beta arbutin (1% w/v in culture medium) per sample has been added topically and re-applied daily. As negative control, culture medium has been applied topically by following the same experimental procedures as for beta-arbutin. Six pig skin samples have been used for each treatment (i.e. beta arbutin and culture medium).
# The pig skin samples were incubated for either 2 or 6 days respectively.
# Following organ culture procedure, skin samples have been embedded in cryomedium by using liquid nitrogen. […]
# The amount of melanin present in each slide has been evaluated by measuring the areas covered by the black spots, by using the software ImageJ (National Institute of Health, US). […]
# The data from all samples of the same experimental group have been pooled and the means ±SEM calculated. The statistical significance (P-value) was been determined by Mann-Whitney U test for nonparametric samples. […]
# [2] = tested on: full thickness human skin; assay: Skin pigmentation in full thickness human skin organ culture; settings: beta arbutin 1% vs vehicle, day 6 of organ culture
# Source text: FIG. 2(A) depicts human skin treated with beta arbutin 1% vs negative control (“vehicle”) at day 6 of organ culture.
# Beta arbutin (hydroquinone glucoside), a recognized inhibitor of tyrosinase, has been selected as positive control for skin lightening.
# [3] = tested on: hair follicle matrix cells in pig skin organ culture; assay: Hair follicle matrix cell proliferation (Ki67/DAPI double staining) in pig skin organ culture; settings: 25 ng/ml in culture medium
# Description: For this experiment, full thickness skin samples had been excised from dorsal part of a pig with 30±5 follicles/cm^2 (age: 8 weeks; weight: 22 kg).
# As a consequence, changes in the proliferation rate of hair follicles matrix cells have been investigated in pig skin organ culture following incubation with recognized modulators of hair growth.
# Two different experimental procedures have been investigated:
# I. In the first experiment, the pig skin samples had been incubated with the potential modulators from day 0 to day 6.
# II. In the second experiment, the skin had been kept in culture until day 14. Then, the skin has been incubated with the potential modulators up day 21.
# Following the organ culture procedure, skin samples had been embedded in cryomedium by using liquid nitrogen. Embedded samples had been cut in thin slides (thickness: 7 μm) and were then immunolabelled by performing Ki67/DAPI double staining to detect proliferative cells localized on the bulb region. In particular, while Ki67 labels proliferating cells, DAPI stains all cell nuclei. Quantitative analysis has been performed by using a custom modified version of the software ImageJ (National Institute of Health, US). The data from all samples of the same experimental group have been pooled and the means ±SEM calculated. The statistical significance (P-value) has been determined by Mann-Whitney U test for nonparametric samples. […]
Molecule,decrease of pigmentation in comparison to the negative control ([1]; after 2 days),decrease of pigmentation in comparison to the negative control ([1]; after 6 days),inhibition of skin pigmentation [2],"inhibition of hair matrix cell proliferation versus untreated control ([3]; incubated day 0 to day 6, read at day 6)","inhibition of hair matrix cell proliferation versus untreated control ([3]; incubated day 14 to day 21, read at day 21)"
"OC[C@H]1O[C@@H](Oc2ccc(O)cc2)[C@H](O)[C@@H](O)[C@@H]1O [beta arbutin, hydroquinone glucoside]",52.4%,44.2%,31%,,
"transforming growth factor beta 2 (protein, UniProt P61812 303-414, looked up) Transforming growth factor …: ALDAAYCFRNVQDNCCLRPLYIDFKRDLGWKWIHEPKGYNANFCAGACPYLWSSDTQHSRVLSLYNTINPEASASPCCVSQDLEPLTILYYIGKTPKIEQLSNMIVKSCKCS",,,,24.8%,36.1%

# From patent US20080138850A1, “Skin Model” (SYMRISE GmbH & Co. KG, priority 2006, published 2008)
